# Data reported in ChEMBL document CHEMBL1131171, “Three-dimensional quantitative structure-activity relationship study of the cannabimimetic (aminoalkyl)indoles using comparative molecular field analysis” (J Med Chem, 1998).
# Biological target: Cannabinoid receptor 1 (Rattus norvegicus, UniProt P20272)
# Assay: Cannabinoid receptor 1 binding affinity by measuring its ability to displace [3H]WIN-55212-2 in rat forebrain membranes
# Assay type: cell membranes, Membrane
# Chain of Cannabinoid receptor 1 (P20272 whole entry): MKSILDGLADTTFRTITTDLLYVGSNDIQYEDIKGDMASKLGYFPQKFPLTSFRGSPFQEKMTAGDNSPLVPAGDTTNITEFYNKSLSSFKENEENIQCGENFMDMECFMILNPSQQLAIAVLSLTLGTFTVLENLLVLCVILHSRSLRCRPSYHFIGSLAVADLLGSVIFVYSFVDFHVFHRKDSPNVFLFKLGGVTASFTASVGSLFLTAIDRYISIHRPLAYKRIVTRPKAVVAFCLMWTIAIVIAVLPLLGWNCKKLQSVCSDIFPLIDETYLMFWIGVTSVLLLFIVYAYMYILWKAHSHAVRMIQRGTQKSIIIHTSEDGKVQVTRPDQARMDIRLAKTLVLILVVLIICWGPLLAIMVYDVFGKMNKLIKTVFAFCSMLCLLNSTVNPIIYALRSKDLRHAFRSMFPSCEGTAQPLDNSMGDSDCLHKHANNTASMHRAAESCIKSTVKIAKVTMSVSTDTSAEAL
row,Compound,Ki [µM]
1,Cc1c(C(=O)c2cccc(Cl)c2)c2ccccc2n1CCN1CCOCC1,955
2,Cc1ccc(C(=O)c2c(C)n(CCN3CCOCC3)c3ccccc23)cc1,708
3,COc1ccc(C(=O)c2c(C)n(CCN3CCOCC3)c3c(C)cccc23)cc1,832
4,COc1ccc(C(=O)c2c(C)n(CCN3CCOCC3)c3cc(C)ccc23)cc1,676
5,COc1ccc(C(=O)c2c(C)n(CCN3CCOCC3)c3cc(OC)ccc23)cc1,871
6,O=C(c1c2ccccc2cc2ccccc12)c1cn(CCN2CCOCC2)c2ccccc12,427
